The subject of assay [1] is S. aureus SA7. Description: MIC, extended Gram-positive panel. In kind it is cell-based.
Assay [2] deals with EMRSA 15 strain. Description: Reserpine assay. In kind it is cell-based, S. aureus. The note with it: compound at 0.25×MIC with reserpine. The procedure:
(§1) A simple plate based method was used as described by Beyer et al. (24). […] Reserpine was added at a final concentration of 10 µg/mL (made up at 40 μg/mL in TSB, 50 μL per well). The bacteria were added at an OD of 0.01 in TSB (100 μL/well). The plate was a normal clear plate as used for MICs. OD was read every 30 minutes for 9 hours (the literature states 7 hours, but this is strain-dependent). Blanks of TSB and water were added to ensure no infections were present.
(§2) The mechanism of inhibition for reserpine involves direct binding to and competitive inhibition of the efflux pump during drug/H^+ antiport. This assay was validated as a method for testing active efflux of fluoroquinolones in Staphylococcus strains by Beyer et al. (24).

Assay [3] has as its system MSSA 9144 strain. As to the kind of experiment: Reserpine assay. In kind it is cell-based, S. aureus. Conditions: compound at 0.25×MIC with reserpine. The procedure:
as §1, §2

Assay [4] concerns S. aureus SA6. Description: MIC, extended Gram-positive panel. The assay is classed as cell-based.
In assay [5] the test system is E. faecium EF2. Description: MIC, extended Gram-positive panel. The assay is classed as cell-based.
Assay [6] has as its system S. aureus SA5. As to the kind of experiment: MIC, extended Gram-positive panel. In kind it is cell-based.
The subject of assay [7] is S. aureus SA9. As to the kind of experiment: MIC, extended Gram-positive panel. In kind it is cell-based.
Assay [8] deals with E. faecalis EF1. As to the kind of experiment: MIC, extended Gram-positive panel. In kind it is cell-based.
Assay [9] concerns S. aureus SA10. As to the kind of experiment: MIC, extended Gram-positive panel. In kind it is cell-based.
For assay [10], the system named is S. aureus SA2. In kind it is cell-based.
For assay [11], the system named is S. aureus SA1. In kind it is cell-based.
In assay [12] the test system is S. epidermidis SE1. As to the kind of experiment: MIC, extended Gram-positive panel. In kind it is cell-based.
Assay [13] has as its system S. aureus SA8. As to the kind of experiment: MIC, extended Gram-positive panel. In kind it is cell-based.
The test system of assay [14] is S. aureus SA4. As to the kind of experiment: MIC, extended Gram-positive panel. The assay is classed as cell-based.
Assay [15] deals with S. aureus SA3. As to the kind of experiment: MIC, extended Gram-positive panel. The assay is classed as cell-based.
For assay [16], the system named is S. haemolyticus SH1. As to the kind of experiment: MIC, extended Gram-positive panel. The assay is classed as cell-based.
Assay [17] concerns MSSA9144. As to the kind of experiment: MIC, microdilution broth method. The assay is classed as cell-based, S. aureus. Background: In broth dilution the organism is exposed to a series of concentrations in liquid medium.
Assay [18] has as its system M6. As to the kind of experiment: MIC, microdilution broth method. In kind it is cell-based.
In assay [19] the test system is EMRSA16. As to the kind of experiment: MIC, microdilution broth method. In kind it is cell-based, Staphylococcus aureus.
The subject of assay [20] is VRE12201. Description: MIC, microdilution broth method. The assay is classed as cell-based, E. faecalis.
Assay [21] relates to VSE775. As to the kind of experiment: MIC, microdilution broth method. In kind it is cell-based, E. faecalis.
Assay [22] deals with EMRSA15. As to the kind of experiment: MIC, microdilution broth method. In kind it is cell-based, Staphylococcus aureus.
Assay [23] concerns VRE12204. As to the kind of experiment: MIC, microdilution broth method. The assay is classed as cell-based, E. faecium.
Assay [24] relates to Ab17978. Description: MIC, microdilution broth method. The assay is classed as cell-based.
The subject of assay [25] is PA01. Description: MIC, microdilution broth method. The assay is classed as cell-based, Pseudomonas aeruginosa.
The test system of assay [26] is EC12923. Description: MIC, microdilution broth method. The assay is classed as cell-based.
In assay [27] the test system is KP13368. Description: MIC, microdilution broth method. The assay is classed as cell-based. Conditions: in µg/mL.
Assay [28] relates to AYE. Description: MIC, microdilution broth method. In kind it is cell-based, Acinetobacter baumannii. The note with it: Normal (without PMBN), in µg/mL.

Values after ≈ are worked out from the molar mass of the structure shown. “Also recorded” adds a separate entry of the source. Structures can show the parent of a compound that is named as a salt.

Turning to `CCn1cc(C(=O)O)c(=O)c2cc(F)c(N3CCN(Cc4cccc5ccccc45)CC3)cc21` [ML-77-021], the MIC is 2 µg/mL (≈ 4.35 µM) in [1] (S. aureus SA7); 2 µg/mL (≈ 4.35 µM) in [4] (S. aureus SA6); 2-4 in [5] (E. faecium EF2, in µg/mL); 2 µg/mL (≈ 4.35 µM) in assay [6] (S. aureus SA5); 2 µg/mL (≈ 4.35 µM) in assay [7] (S. aureus SA9); 4 µg/mL (≈ 8.7 µM) in assay [8] (E. faecalis EF1). Further, the MIC in assay [9] (S. aureus SA10, in µg/mL) was 2; in [10] (S. aureus SA2, in µg/mL) it was 1; in assay [11] (S. aureus SA1) it was 4 µg/mL (≈ 8.7 µM); in assay [12] (S. epidermidis SE1, in µg/mL) it was 1; in assay [13] (S. aureus SA8), 2 µg/mL (≈ 4.35 µM); in assay [14] (S. aureus SA4) it was 2 µg/mL (≈ 4.35 µM). For the same compound, the MIC in assay [15] (S. aureus SA3) is 2 µg/mL (≈ 4.35 µM); in assay [16] (S. haemolyticus SH1), 4 µg/mL (≈ 8.7 µM). Also, the Fold decrease is reported as no less than 64 in assay [1] (SA7, MIC of ML-77-005 vs CIP, of ML-77-021 vs NOR); no less than 64 in assay [4] (SA6, MIC of ML-77-005 vs CIP, of ML-77-021 vs NOR); no less than 32 in assay [5] (EF2, MIC of ML-77-005 vs CIP, of ML-77-021 vs NOR); no less than 64 in [6] (SA5, MIC of ML-77-005 vs CIP, of ML-77-021 vs NOR); no less than 64 in [7] (SA9, MIC of ML-77-005 vs CIP, of ML-77-021 vs NOR); no less than 32 in [8] (EF1, MIC of ML-77-005 vs CIP, of ML-77-021 vs NOR). Further, the Fold decrease in [9] (SA10, MIC of ML-77-005 vs CIP, of ML-77-021 vs NOR) is recorded as 64; in assay [10] (SA2, MIC of ML-77-005 vs CIP, of ML-77-021 vs NOR) it was 8-64; in [11] (SA1, MIC of ML-77-005 vs CIP, of ML-77-021 vs NOR), no less than 32; in assay [12] (SE1, MIC of ML-77-005 vs CIP, of ML-77-021 vs NOR), 1-4; in assay [13] (SA8, MIC of ML-77-005 vs CIP, of ML-77-021 vs NOR), 64; in assay [14] (SA4, MIC of ML-77-005 vs CIP, of ML-77-021 vs NOR), 32. The Fold decrease amounted to 32 in assay [15] (SA3, MIC of ML-77-005 vs CIP, of ML-77-021 vs NOR) and 32 in assay [16] (SH1, MIC of ML-77-005 vs CIP, of ML-77-021 vs NOR). For the same compound, the “efflux by the strain (reserpine assay)” value in assay [2] is given as “cannot be effluxed”; in [2] (listed as napthyl-linked norfloxacin) it was “not effluxed”; in assay [3], “cannot be effluxed; also recorded: not effluxed”.

Turning to `CCn1cc(C(=O)O)c(=O)c2cc(F)c(N3CCN(Cc4ccc5ccccc5c4)CC3)cc21` [ML-77-31], the MIC is 0.25 µg/mL (≈ 0.544 µM) in assay [17]; 16-32 in assay [18] (M6, in µg/mL); 4 µg/mL (≈ 8.7 µM) in assay [19] (EMRSA16); 4 in assay [20] (VRE12201, in µg/mL); 4 µg/mL (≈ 8.7 µM) in assay [21] (VSE775); 4 in [22] (EMRSA15, in µg/mL). Further, in assay [23], the MIC was 2 µg/mL (≈ 4.35 µM).

Take `CCn1cc(C(=O)O)c(=O)c2cc(F)c(N3CCN(Cc4ccc(F)c5ccccc45)CC3)cc21` [ML-77-49]: the MIC worked out at 8 µg/mL (≈ 16.8 µM) in assay [17]; 8 µg/mL (≈ 16.8 µM) in [19] (EMRSA16); 16 in assay [20] (VRE12201, in µg/mL); 8 µg/mL (≈ 16.8 µM) in assay [21] (VSE775); 8 in assay [22] (EMRSA15, in µg/mL).

Consider `CCn1cc(C(=O)O)c(=O)c2cc(F)c(N3CCN(Cc4ccc(S(=O)(=O)NCCc5c[nH]c6ccccc56)cc4)CC3)cc21` [ML-77-146], for which the “MIC +PMBN” value in assay [24] (Ab17978, +PMBN) worked out at 4; in assay [18] (M6, +PMBN), 28; in [25] (PA01, +PMBN), 0.25.

Take `Cc1cc(N2CCN(c3c(F)cc4c(=O)c(C(=O)O)cn5c4c3OC[C@@H]5C)CC2)nc(C(C)C)n1` [ML-83-012, (S)-9-fluoro-10-(4-(2-isopropyl-6-methylpyrimidin-4-yl)piperazin-1-yl)-3-methyl-7-oxo-2,3-dihydro-7H-[1,4]oxazino[2,3,4-ij]quinoline-6-carboxylic Acid Hydrochloride]: the MIC in assay [24] (Acinetobacter baumannii, Acinetobacter baumannii (AB17978)) is 8 µg/mL; in assay [18] (Klebsiella pneumoniae, Klebsiella pneumoniae (M6)), 16 µg/mL; in [18] (M6, Gram-negative, in µg/mL), 16; in [19] (EMRSA16, Gram-positive) it was 16 µg/mL; in assay [19] (Staphylococcus aureus, Staphylococcus aureus (EMRSA16)), 2 µg/mL; in assay [20] (Enterococcus faecalis, Enterococcus (VRE12201)), no more than 0.125 µg/mL. The MIC in assay [20] (VRE12201, Gram-positive, in µg/mL) is 0.5-1; in assay [21] (Enterococcus faecalis) it was 0.5 µg/mL; in [21] (VSE775, Gram-positive) it was 1 µg/mL; in assay [26] (Escherichia coli, Escherichia coli (EC12923)) it was 4 µg/mL; in assay [27] (Gram-negative) it was 64; in [22] (EMRSA15, Gram-positive, in µg/mL), 16. Besides, the MIC in assay [22] (Staphylococcus aureus) is 2 µg/mL; in [25] (Pseudomonas aeruginosa, Pseudomonas aeruginosa (PA01)) it was 32 µg/mL.

Consider `C[C@H]1COc2c(N3CCC(n4cccn4)CC3)c(F)cc3c(=O)c(C(=O)O)cn1c23` [ML-83-041, (S)-10-(4-(1H-pyrazol-1-yl)piperidin-1-yl)-9-fluoro-3-methyl-7-oxo-2,3-dihydro-7H-[1,4]oxazino[2,3,4-ij]quinoline-6-carboxylic Acid], for which the MIC in assay [26] (EC12923, Normal (without PMBN), in µg/mL) is 1-2; in [27] (Normal (without PMBN)), 16-32; in assay [28], 64-128.

The values are drawn from patent publication US20210261570A1, “ANTIBIOTIC RESISTANCE BREAKERS” (KING'S COLLEGE LONDON, priority 2017, published 2021).
